Source: patent US9314539B2, “Nanosphere-histone acetyltransferase (HAT) activator composition, process and methods thereof” (JAWAHARLAL NEHRU CENTRE FOR ADVANCED SCIENTIFIC RESEARCH, priority 2012, dated 2016)
Like-named read-outs stand apart in the source and are kept apart here.

Experiments:
p300 [1] = target: T1, p300 (Homo sapiens, UniProt Q09472); test: HAT filter binding assay with p300; type: biochemical; details: for HAT activation (radioactivity counts): 200 μM, HeLa core histones as substrate
From the text: To understand the mechanistic aspects HAT activation various small molecules are derivatized from CTPB. The initial tail less derivative of CTPB is nomenclatured as N-(4Chloro-3-trifluoromethy 1-pheny 1)-2-ethoxybenzamide [CTB]. CTB is further derivatized to TTK series of compounds (COMPOUNDS 1-9) (FIG. 29 A). These compounds are subjected to histone acetyltransferase assays (filter binding assay) to check for their ability to activate p300/CBP HAT. Core histones purified from HeLa nuclear pellet is used as the substrate and p300 purified from baculovirus infected Sf21 cells is used to determine the HAT modulation activity of these compounds. All compounds are used at a concentration of 200 μM in the HAT assays.
(§1) Highly purified HeLa core histones are incubated in HAT assay buffer at about 30° C. for a time-period of about 10 minutes with or without baculo virus expressed recombinant p300 or CBP in the presence or absence of small molecules (i.e. HAT activators). The incubation is followed by the addition of about 1 μl of 3.6 Ci/mmol ^3H-acetyl CoA (NEN-PerkinElmer) and further incubation for about 10 minutes in a final volume of 30 μl at 30° C. The mixture is blotted onto P-81 (Whatman) filter paper and radioactive counts are recorded on a Wallac 1409 liquid scintillator counter. For gel fluorographic assays, histones are isolated by trichloroacetic acid (TCA) precipitation using 25% TCA. The pellet obtained is washed twice with acetone and dissolved in 2×SDS loading dye, heated for about 5 mins and is followed by separation using 15% SDS-PAGE. Comassie staining is performed to ascertain the presence of equal loading in each reaction and is later dehydrated in DMSO for about 1 hour. Dehydrated gel is later incubated in scintillation fluid (PPO solution in DMSO) for about 45 minutes and rehydrated again in distilled water for about 4 hours. The gel is then dried using a gel drier and later exposed in an X-ray cassette using a film for about 5 days in −80° cooler. The film is then developed to obtain the intensity profiles for each of the reactions.

p300 [2] = target: T1, p300; test: Gel fluorography HAT assay with p300; type: biochemical
Method: FIG. 2 depicts (A) filter binding assay to show activation of p300 by TTK21. […] TTK21 dissolved in DMSO is added to the reaction mixture at desired concentrations. Lane 1—Histone only, Lane 2—p300 enzyme added, Lane 3—DMSO added, Lane 4—50 μM TTK21, Lane 5—100 μM TTK21, Lane 6—200 μM TTK21 and Lane 7—275 μM TTK21.
as §1, with “Dehydrated gel is later incubated in scintillation fluid (PPO solution in DMSO) for about 45 minutes and rehydrated again in distilled water for about 4 hours. The gel is then dried using a gel drier and later exposed in an X-ray cassette using a film for about 5 days in −80° cooler. The film is then developed to obtain the intensity profiles for each of the reactions.” left out

CBP = test: HAT filter binding and gel fluorography assays with full length FLAG-CBP; type: biochemical
Method: TTK21 dissolved in DMSO is added to the reaction mixture at desired concentrations. Lane 1—Histone only, Lane 2—CBP enzyme added, Lane 3—DMSO added, Lane 4—50 μM TTK21, Lane 5—100 μM TTK21, Lane 6—200 μM TTK21 and Lane 7—275 μM TTK21.
COMPOUND 1 is synthesized using salicylic acid as a substrate as depicted in FIG. 1. […] The concentrations of COMPOUND 1 selected for this particular assay are 50 μM, 100 μM, 200 μM and 275 μM. […] These screening experiments are also repeated with full length FLAG-CBP (FIG. 3).
Highly purified HeLa core histones are incubated in HAT assay buffer at about 30° C. for a time-period of about 10 minutes with or without baculo virus expressed recombinant p300 or CBP in the presence or absence of small molecules (i.e. HAT activators). The incubation is followed by the addition of about 1 μl of 3.6 Ci/mmol ^3H-acetyl CoA (NEN-PerkinElmer) and further incubation for about 10 minutes in a final volume of 30 μl at 30° C. The mixture is blotted onto P-81 (Whatman) filter paper and radioactive counts are recorded on a Wallac 1409 liquid scintillator counter. For gel fluorographic assays, histones are isolated by trichloroacetic acid (TCA) precipitation using 25% TCA. The pellet obtained is washed twice with acetone and dissolved in 2×SDS loading dye, heated for about 5 mins and is followed by separation using 15% SDS-PAGE. […]

HeLa cells = test: Cell permeability: western blot of acetylated H3 in treated HeLa cells; type: cell-based
Method: (A) western blot analysis of TTK21 untreated and treated HeLa cells for 24 hours. […] Primary probing of the blot is done with AcH3 and re-probing is done by H3 antibody.

SHSY cells = test: Cell permeability in neural cell lines; type: cell-based
Method: The cell permeability tests of COMPOUND 1 alone is also carried out in various neural cell lines such as SHSY cells and the results are found to be similar to HeLa cells.

[3] = system: neurons expressing double cortin; test: Neurogenesis in dentate gyrus of hippocampus, doublecortin staining; type: in vivo, mice; details: intraperitoneal; 3 days
Method: FIG. 18 depicts CSP-TTK21 induced neurogenesis in the inner wall of dentate gyms of mice hippocampus. […] of either CSP alone or TTK21 alone or CSP-TTK21 is injected intraperitonially into mice and after 3 days the mice are anesthetized and fixed with 4% paraformaldehyde. Brains are dissected out and post-fixed, cryoprotected and frozen. 20 μm thick sections are obtained and the results are analyzed by immunohistochemistry. Further, immunofluorescence assays are performed using antibody against double cortin. Scale bar represents 50 μm.
A-D, Immunohistochemistry analysis of the dentate gyms of mice, 3 days after intraperitonial injection of either CSP alone or CSP-TTK21 (20 mg/kg of body weight) using an antibody against doublecortin (DCX) followed by DAB staining. A typical photograph is shown (A). Scale bars: 100 μm. The timeline for injection and euthanasia is shown. h, hour; d, day. […] (C) The average of the longest dendrites associated to all DCX positive-new neuron within one hippocampus is calculated and is represented as histogram for each condition (CSP: 141.1 μm vs. CSP-TTK21: 176.9 μm, *p=0.0177, 4-6 sections/animal). (D), (A) typical cropped image from A is shown, on which the number of dendrites crossing virtual lines drawned at 60, 90 and 120 μm from the SGZ was counted (n=5 images/animal). […]

T1 sequence (Q09472 whole entry, species assumed): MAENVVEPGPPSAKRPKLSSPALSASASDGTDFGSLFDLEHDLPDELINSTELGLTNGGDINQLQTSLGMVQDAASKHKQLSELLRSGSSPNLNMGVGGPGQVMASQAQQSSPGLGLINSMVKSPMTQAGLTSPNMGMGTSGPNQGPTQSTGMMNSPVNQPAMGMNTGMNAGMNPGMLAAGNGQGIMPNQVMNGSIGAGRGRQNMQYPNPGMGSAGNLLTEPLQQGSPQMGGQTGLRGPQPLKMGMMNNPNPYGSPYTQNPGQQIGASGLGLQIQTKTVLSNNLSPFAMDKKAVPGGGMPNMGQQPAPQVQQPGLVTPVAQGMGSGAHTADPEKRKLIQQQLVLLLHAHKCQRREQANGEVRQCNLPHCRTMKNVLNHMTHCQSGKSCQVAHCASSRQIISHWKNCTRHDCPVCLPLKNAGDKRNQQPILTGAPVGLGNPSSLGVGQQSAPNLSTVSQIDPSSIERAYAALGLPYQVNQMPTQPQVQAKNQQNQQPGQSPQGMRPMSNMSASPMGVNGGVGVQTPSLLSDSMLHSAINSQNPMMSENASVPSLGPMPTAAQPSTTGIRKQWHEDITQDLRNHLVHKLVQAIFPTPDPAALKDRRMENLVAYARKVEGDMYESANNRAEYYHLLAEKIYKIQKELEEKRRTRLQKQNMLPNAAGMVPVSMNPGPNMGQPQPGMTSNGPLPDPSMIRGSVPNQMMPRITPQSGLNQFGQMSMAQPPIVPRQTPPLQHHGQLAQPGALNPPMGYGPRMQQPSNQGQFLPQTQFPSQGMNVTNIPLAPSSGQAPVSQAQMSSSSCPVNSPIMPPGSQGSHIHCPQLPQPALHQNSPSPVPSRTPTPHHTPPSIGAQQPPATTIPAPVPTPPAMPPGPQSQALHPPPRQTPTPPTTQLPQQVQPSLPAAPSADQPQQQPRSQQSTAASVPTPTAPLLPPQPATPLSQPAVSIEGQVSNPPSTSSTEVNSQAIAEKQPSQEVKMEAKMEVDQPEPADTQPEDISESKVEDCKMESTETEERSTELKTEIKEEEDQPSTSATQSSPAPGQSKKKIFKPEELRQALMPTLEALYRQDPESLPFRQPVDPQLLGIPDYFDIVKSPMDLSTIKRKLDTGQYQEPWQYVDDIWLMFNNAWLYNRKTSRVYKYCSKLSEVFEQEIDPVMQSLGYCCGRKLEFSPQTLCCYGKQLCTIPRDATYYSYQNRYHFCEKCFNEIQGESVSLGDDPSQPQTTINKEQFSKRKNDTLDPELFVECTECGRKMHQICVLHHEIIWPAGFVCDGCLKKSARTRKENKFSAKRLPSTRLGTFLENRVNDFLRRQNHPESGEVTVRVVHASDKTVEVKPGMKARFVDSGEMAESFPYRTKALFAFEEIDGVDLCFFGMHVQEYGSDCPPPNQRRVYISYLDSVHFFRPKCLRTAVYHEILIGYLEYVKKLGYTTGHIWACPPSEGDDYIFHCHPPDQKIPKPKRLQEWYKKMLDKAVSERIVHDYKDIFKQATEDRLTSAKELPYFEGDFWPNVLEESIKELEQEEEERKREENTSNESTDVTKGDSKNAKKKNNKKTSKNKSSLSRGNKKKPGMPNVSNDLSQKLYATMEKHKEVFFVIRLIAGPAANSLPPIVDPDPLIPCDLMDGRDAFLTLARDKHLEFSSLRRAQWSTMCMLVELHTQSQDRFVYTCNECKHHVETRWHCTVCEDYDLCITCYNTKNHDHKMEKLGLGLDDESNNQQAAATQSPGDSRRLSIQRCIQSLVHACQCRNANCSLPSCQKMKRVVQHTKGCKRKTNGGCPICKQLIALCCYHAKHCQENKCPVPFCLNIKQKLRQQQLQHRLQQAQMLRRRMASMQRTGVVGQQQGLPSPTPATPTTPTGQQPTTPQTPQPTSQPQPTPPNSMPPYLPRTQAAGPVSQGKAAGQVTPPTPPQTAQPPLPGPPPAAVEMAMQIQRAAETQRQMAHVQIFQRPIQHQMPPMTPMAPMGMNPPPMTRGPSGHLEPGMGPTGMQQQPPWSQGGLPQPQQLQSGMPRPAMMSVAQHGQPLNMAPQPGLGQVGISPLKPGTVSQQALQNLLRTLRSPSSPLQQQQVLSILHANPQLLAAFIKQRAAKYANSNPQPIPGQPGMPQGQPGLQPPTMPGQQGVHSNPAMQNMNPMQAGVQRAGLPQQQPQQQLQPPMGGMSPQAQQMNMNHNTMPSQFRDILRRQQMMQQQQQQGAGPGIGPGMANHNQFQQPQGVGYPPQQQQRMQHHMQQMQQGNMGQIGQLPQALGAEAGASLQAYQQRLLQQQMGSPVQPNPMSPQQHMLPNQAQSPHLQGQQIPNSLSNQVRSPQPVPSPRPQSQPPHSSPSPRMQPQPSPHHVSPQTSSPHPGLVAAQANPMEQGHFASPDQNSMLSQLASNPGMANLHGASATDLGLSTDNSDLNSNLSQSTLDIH

HAT activation (radioactivity counts) (p300 [1]): one of the most efficient HAT activator
concentration of maximum activation of p300 (p300 [1]; filter binding): 250 to 275 µM
activation of p300, dose dependence (p300 [1]; filter binding, 50-275 μM): Dose dependent activation of p300
concentration from which activation of p300 starts (p300 [1]; filter binding, tested 50, 100, 200, 275 μM): 5004
concentration of maximum activation of p300 (p300 [2]): 275 µM
activation of p300, dose dependence (p300 [2]; 50-275 μM): dose dependent manner
activation of CBP, dose dependence (CBP; 50-275 μM): dose dependent activation of CBP
concentration of maximum activation of CBP (CBP; filter binding and gel fluorography): 275 µM
cell permeability (HeLa cells; listed as TTK21): impermeable to cells
SMILES: CCCOc1ccccc1C(=O)Nc1ccc(Cl)c(C(F)(F)F)c1 [COMPOUND 1, N-(4-Chloro-3-trifluoromethyl-phenyl)-2-n-propoxy-benzamide]
HAT activation (radioactivity counts) (p300 [1]; listed as TTK21): significant increase in radioactivity counts compared to other compounds
cell permeability (HeLa cells): inability of the COMPOUND 1 molecule itself to enter into mammalian cells
histone H3 acetylation (HeLa cells; 50-275 μM, 24 hrs): no alteration of histone H3 acetylation
cell permeability (SHSY cells): inability of the COMPOUND 1 molecule alone to enter into mammalian cells
double cortin expression in dentate gyrus [3]: doesn't show double cortin expression
